Like-named read-outs stand apart in the source and are kept apart here.
What was measured:
[1] = acute toxicity in the mouse, intraperitoneal; format: in vivo, Souris; conditions: mouse, in vivo, ip, voie intrapéritonéale; for LD50 at 48 h: souris femelles, read-out: DL 50; for mortality at 48 h: read-out: Mortalité %
Text: (§1) Les produits ont été administrés par voie intrapéritonéale à des souris femelles dont le poids variait de 18 à 30 g.
(§2) Les animaux injectés ont été maintenus dans une salle thermostatée, nourris et abreuvés à volonté.
(§3) La mortalité a été relevée à 1 heure, 4 heures, 24 heures et 48 heures.

[2] = test system: souris femelles; assay: acute toxicity in the mouse, intraperitoneal; format: in vivo; conditions: voie intrapéritonéale; for Mortalité en 1 heure / Mortalité en 48 h. / Mortalité en 48 heures: dead mice of the group
Text: as §1, §2, §3

[3] = test system: Souris; assay: antireserpine activity: reserpine hypothermia; format: in vivo; conditions: réserpine 5 mg/kg i.p. 17 h before, product i.p. 150 mg/kg
Description: On note ensuite les températures témoins (réserpine), puis les températures 1, 2, 3 et 4 heures après l'administration des produits étudiés.
Les animaux sont répartis en lots de 4 animaux et reçoivent par voie intrapéritonéale la réserpine à une dose de 5 mg/kg. 17 heures après cette injection, on mesure la température corporelle de l'animal à l'aide d'une sonde thermocouple introduite dans le rectum; chaque lot reçoit ensuite la substance par voie intrapéritonéale. Le lot témoin reçoit la même quantité de solvant et par la même voie. La température corporelle est ensuite mesurée toutes les heures pendant 4 heures.
Les résultats sont rassemblés dans un tableau récapitulatif-où sont indiqués : • - la température moyenne pour chaque lot relevée 17 heures après l'injection de la réserpine, • - la moyenne des variations de température pour chaque lot relevées 1,2, 3 et 4 heures après l'injection de la substance étudiée, • - la somme des variations de températures pendant 4 heures, • - le pourcentage d'augmentation de la température pour chaque produit par rapport aux témoins.

| Compound | LD50 at 48 h [1] [mg/kg] | mortality at 48 h ([1]; 50 mg/kg) [%] | mortality at 48 h ([1]; 100 mg/kg) [%] | mortality at 48 h ([1]; 250 mg/kg) [%] | Mortalité en 1 heure ([2]; 50 mg/kg) | Mortalité en 48 h. ([2]; 50 mg/kg) | Mortalité en 1 heure ([2]; 100 mg/kg) | Mortalité en 48 h. ([2]; 100 mg/kg) | Mortalité en 1 heure ([2]; 250 mg/kg) | Mortalité en 48 h. ([2]; 250 mg/kg) | mortality at 48 h ([1]; 300 mg/kg) [%] | Mortalité en 1 heure ([2]; 300 mg/kg) | Mortalité en 48 h. ([2]; 300 mg/kg) | mortality at 48 h ([1]; 500 mg/kg) [%] | Mortalité en 1 heure ([2]; 500 mg/kg) | Mortalité en 48 h. ([2]; 500 mg/kg) | variation de température T= 2h [3] | variation de température T=3h [3] | variation de température T=4h [3] | Mortalité en 1 heure ([2]; 1000 mg/kg) | also measured |
| --- | --- | --- | --- | --- | --- | --- | --- | --- | --- | --- | --- | --- | --- | --- | --- | --- | --- | --- | --- | --- | --- |
| CN(C)CCCN1c2ccccc2C2C(c3ccccc3)=NN(c3ccccc3)C2c2ccccc21 (centres unmarked) [compound 8, (y-diméthylaminopropyl)-8 diphênyl-1,3 tétrahydro-1,3a,8, 12b(dibenzo [b,f]pyrazolo [3,4-d])azépine] | > 250 | 0 | 0 | 0 | 0 | 0 | 0 | 0 | 0 | 0 | – | – | – | – | – | – | – | – | – | – | mortality at 48 h ([1]; 5 mg/kg): 0%; mortality at 48 h ([1]; 150 mg/kg): 20%; Mortalité en 1 heure ([2]; 5 mg/kg): 0; Mortalité en 48 h. ([2]; 5 mg/kg): 0; Mortalité en 1 heure ([2]; 150 mg/kg): 1; Mortalité en 48 h. ([2]; 150 mg/kg): 1 |
| CC(CN(C)C)CN1c2ccccc2-c2c(-c3ccccc3)nn(-c3ccccc3)c2-c2ccccc21 (centres unmarked) [compound 15, (méthyl-2 diméthylamino-3 propyl)-8 diphényl 1,3 dihydro-1,8(dibenzo [b,f]pyrazolo [3 ,4-d]) azépine] | 175 | 0 | 0 | 80 | 0 | 0 | 0 | 0 | 2 | 4 | 80 | 0 | 4 | – | – | – | – | – | – | – | – |
| c1ccc(C2=NN(c3ccccc3)C3c4ccccc4Nc4ccccc4C23)cc1 (centres unmarked) [compound 6, diphényl-1,3 tétrahydro-1,3a,8,12b(dibenzo [b,d]pyrazolo[3,4-d])hazépine] | > 750 | – | – | – | – | – | – | – | – | – | – | – | – | 0 | 0 | 0 | +0,7 | +0,6 | +0,4 | – | mortality at 48 h ([1]; 750 mg/kg): 0%; Mortalité en 1 heure ([2]; 750 mg/kg): 0; Mortalité en 48 h. ([2]; 750 mg/kg): 0; change in vivo at 150 mg/kg ([3]; ip, 4 h, read-out: % d'augmentation par rapport aux témoins): 80% |
| CC(CN(C)C)CN1c2ccccc2C2ON=C(c3ccccc3)C2c2ccccc21 (centres unmarked) [compound 4, (méthyl-2 diméthylamino-3 propyl)-8 phényl-3 trihydro-3a, 8, 12b (dibenzo[b,f]-isoxazolo [4,5-d]) azépine] | 175 | – | 0 | – | – | – | 0 | 0 | – | – | 100 | 4 | 4 | – | – | – | – | – | – | – | – |
| c1ccc(-c2noc3c2-c2ccccc2Nc2ccccc2-3)cc1 [compound 16, phényl-3 (dibenzo [b,f]isoxazolo [4,5-d]) 8H azépine] | > 1000 | 0 | 0 | 20 | 0 | 0 | 0 | 0 | 0 | 1 | – | – | – | 0 | 0 | 0 | – | – | – | 0 | mortality at 48 h ([1]; 1000 mg/kg): 0%; Mortalité en 48 heures ([2]; 1000 mg/kg): 0 |
| (γ-diméthylaminopropyl)-8 phényl-1 (chloro-4' phényl)-3 tétrahydro-1,3a, 8,12b(dibenzo[b,f]pyrazolo [3,4-d])azépine [compound 11] | – | – | – | – | – | – | – | – | 0 | 0 | – | – | – | – | – | – | +0,4 | +0,5 | +0,7 | 0 | DL 50 ([2]; souris femelles, 2880 min): >1000 mg/kg; Mortalité % ([2]; 250 mg/kg, 2880 min): 0%; Mortalité % ([2]; 450 mg/kg, 2880 min): 0%; Mortalité en 1 heure ([2]; 450 mg/kg): 0; Mortalité en 48 heures ([2]; 450 mg/kg): 0; Mortalité % ([2]; 1000 mg/kg, 2880 min): 0%; Mortalité en 48 heures ([2]; 1000 mg/kg): 0; % d'augmentation par rapport aux témoins [3]: 85% |
